The values that follow come from US10399968B2, “Hydroxyalkyl thiadiazole derivatives” (Daiichi Sankyo Company, Limited, priority 2015, dated 2019).

In brackets after ≈: the same amount, converted by molar mass. Like-named read-outs stand apart in the source and are kept apart here.

A short description of series [1]: Solubility in water (JP1 / JP2 fluids). The format is physicochemical. The note with it: thermodynamic from solid. The method, then:
A 10 mmol/L solution of the test compound was prepared in DMSO and dispensed 100 μL of 10 mmol/L DMSO stock solutions into labeled glass tubes in duplicate, one for Japanese Pharmacopeia First Fluid (JP1) and second for Japanese Pharmacopeia Second Fluid (JP2). After evaporation of DMSO from each tube, 500 μL of JP1 and JP2 fluid were added in each tube, respectively. These tubes were sonicated for 1 minute and placed on shaker for 30 minutes with an interval of 30 seconds at every 5 minute. Tubes were placed in dark at room temperature for 1 hour and solution was filtered through membrane filter. The filtrate was diluted 2-fold and 10-fold. The resulting test solutions was analyzed and quantified against the standards using UPLC (standard preparation—10 mmol/L solution in DMSO is serially diluted with 50% aqueous acetonitrile solution to prepare 2 solutions; 100 μmol/L standard solution and 5 μmol/L standard solutions).

The next series has as its system P. acnes ATCC 6523. As to the kind of experiment: Susceptibility of P. acnes, agar dilution MIC. The note with it: Cutibacterium acnes, ATCC6523, anaerobic. The format is cell-based. As for the experimental part: (§1) The antibacterial activity of the compounds of the present invention against P. acnes clinical isolates was tested by the agar dilution method. The assay was carried out according to the CLSI guidelines document (Clinical and Laboratory Standards Institute, 2012 & 2016). The test strains were spread on supplemented Brucella agar (SBA) plates and grown for 42 to 48 hours at 36° C. under anaerobic condition. The test compound dilutions were prepared with Brucella broth and SBA plates containing dilution of test compound were prepared. As an anaerobic growth control and to check the aerobic contamination, plates not containing the test compound were also prepared. Colonies grown on plates were suspended with Brucella broth to adjust the turbidity to 0.5 McFarland using a densitometer. Suspension (1-2 μL) of the test strains was inoculated onto each agar surface by using a bacterial suspension inoculation apparatus (multipoint inoculator). After anaerobic incubation for 42 to 48 hours at 36° C., absence and presence of growth of each strain on growth control plates and test compounds plate were examined with unaided eye. The MIC was determined at which a marked reduction occurs in the appearance of growth on the test plate as compared to that of growth on the anaerobic control plates.
In general terms: In agar dilution, organisms are placed on agar that contains the substance at set levels.

For a further series, the system named is P. acnes IHMA 103740. Description: Susceptibility of P. acnes, agar dilution MIC. The format is cell-based. The note with it: Cutibacterium acnes, IHMA103740, anaerobic. The method, then: as §1
The test system of another series is P. acnes ATCC 6921. Description: Susceptibility of P. acnes, agar dilution MIC. The format is cell-based. The note with it: Cutibacterium acnes, ATCC6921, anaerobic. The method, then:
as §1

In another series the test system is P. acnes IHMA 775486. Description: Susceptibility of P. acnes, agar dilution MIC. The format is cell-based. The note with it: Cutibacterium acnes, IHMA775486, anaerobic. As for the experimental part:
as §1

Series [2] relates to Clostridium difficile ATCC 43255. Description: Susceptibility of Clostridium difficile, agar dilution MIC. The format is cell-based. The note with it: Clostridioides difficile, ATCC43255, anaerobic. The method, then: The antibacterial activity of the compounds of the present invention against Clostridium difficile clinical isolates was tested by the agar dilution method. The assay was carried out according to the CLSI guidelines for managing the procedures of susceptibility tests “M11-A8, Methods for Antimicrobial Susceptibility Testing of Anaerobic Bacteria; Approved Standard-Eighth Edition. CLSI document (2012)”.
The test strains were spread on supplemented Brucella agar (SBA) plates and grown at 36° C. under anaerobic condition for 42 to 48 hours. The test compound dilutions were prepared with Brucella broth and SBA plates containing dilution of test compound were prepared. As an anaerobic growth control, plates not containing the test compound were also prepared. Colonies grown on plates were suspended with Brucella broth to adjust the turbidity to 0.5 McFarland using a densitometer. Suspension (1-2 μL) of the test strains was inoculated onto each agar surface by using a bacterial suspension inoculation apparatus. After anaerobic incubation at 36° C. for 42 to 48 hours, absence and presence of growth of each strain were examined with unaided eye. The MIC was determined at which a marked reduction occurs in the appearance of growth on the test plate as compared to that of growth on the anaerobic control plates.

The test system of a further series is S. aureus ATCC 29213. Description: Susceptibility of bacteria, broth microdilution MIC. The note with it: Staphylococcus aureus, ATCC29213. The format is cell-based. As for the experimental part:
The antibacterial activity of the compounds of the present invention was tested by the broth microdilution method. The assay was carried out according to the CLSI guidelines for managing the procedures of susceptibility tests: “M7-A7 Methods for Dilution Antimicrobial Susceptibility Tests for Bacteria That Grow Aerobically; Approved Standard-Seventh Edition (2006)”. Test strains were grown on appropriate agar plates overnight. A broth containing the test compound diluted serially 2-fold and diluents were dispensed at 100 μL to each well of a 96-well microplate. As a growth control, a well with a broth not containing the test compound was also prepared. Colonies grown on the plates were suspended in saline, adjusted to 0.5 McFarland (OD625=0.08 to 0.10) using a colorimeter, and then diluted 10-fold with saline. The bacterial suspension was inoculated at 4 μL into each well of the microplate using a bacterial suspension inoculation apparatus. The inoculated microplate was incubated at 35° C. overnight (about 20 hours). The growth condition was observed by the naked eye, and the minimum concentration to inhibit bacterial proliferation was defined as a minimum inhibitory concentration (MIC). The MICs of compounds disclosed herein for E. faecium, Streptococcus pneumoniae and Haemophilus influenzae are shown in Table 2, while for S. aureus in Table 3.
(In general: Dilution methods test growth across graded concentrations, often in twofold steps.)

For series [3], the system named is Streptococcus pneumoniae ATCC 49619. Described as above. The note with it: ATCC49619. The format is cell-based. The method, then: (§2) The antibacterial activity of the compounds of the present invention was tested by the broth microdilution method. The assay was carried out according to the CLSI guidelines for managing the procedures of susceptibility tests: “M7-A7 Methods for Dilution Antimicrobial Susceptibility Tests for Bacteria That Grow Aerobically; Approved Standard-Seventh Edition (2006)”. Test strains were grown on appropriate agar plates overnight. A broth containing the test compound diluted serially 2-fold and diluents were dispensed at 100 μL to each well of a 96-well microplate. As a growth control, a well with a broth not containing the test compound was also prepared. Colonies grown on the plates were suspended in saline, adjusted to 0.5 McFarland (OD625=0.08 to 0.10) using a colorimeter, and then diluted 10-fold with saline. The bacterial suspension was inoculated at 4 μL into each well of the microplate using a bacterial suspension inoculation apparatus. The inoculated microplate was incubated at 35° C. overnight (about 20 hours). The growth condition was observed by the naked eye, and the minimum concentration to inhibit bacterial proliferation was defined as a minimum inhibitory concentration (MIC).

For series [4], the system named is Haemophilus influenzae ATCC 49247. The description is as above. The note with it: ATCC49247. The format is cell-based. The method, then:
as §2

In the next series the test system is E. faecium ATCC 29212. Described as above. The note with it: Enterococcus faecium, ATCC29212. The format is cell-based. As for the experimental part:
as §2

The subject of series [5] is Clostridium difficile 2009155, a NAP1/027 strain. As to the kind of experiment: Hamster CDI model. The format is in vivo. The note with it: 0.3 mg/kg/day by oral route, 5 days. As for the experimental part: The in vivo efficacy of test compounds were evaluated in a hamster CDI model caused by Clostridium difficile 2009155, a NAP1/027 strain. Syrine hamsters (6-8-weeks old) were primed with a single subcutaneous injection of clindamycin (30 mg/kg) 1-5 days prior to infection. Hamsters were infected by oral gavage with 1 ml of spore suspension ([…]) prepared in PBS. The drug was administered to the hamsters 6 hours post infection by oral or subcutaneous route at an interval of 24 hours for 5 days. The death and survival of the non-treated group and the drug-administered group were recorded once daily for 35 days.

The target in series [6] is Clostridium difficile DNA gyrase (Clostridioides difficile, UniProt Q18C89). Description: DNA supercoiling inhibition assay. The note with it: supercoiling of relaxed pBR322 DNA, 60 minutes at 37° C. The format is biochemical. The method, then: DNA supercoiling assays (30 μL reaction) were performed in a buffer containing 15 mM Tris-HCl pH 7.5, 13% glycerol, 6 mM MgCl2, 0.1 mg/mL BSA, 70 mM KCl, 1 mM dithioerythritol, 400 ng of DNA substrate (relaxed pBR322 DNA) and different concentrations of test compounds and/or standards. The dilutions of test compounds and standards were prepared in 20% dimethylsulfoxide (DMSO) and added 3 μL/reaction. The reaction was started by adding 2 μL amounts of Clostridium difficile DNA gyrase into the reaction mixtures and reactions were allowed to proceed for 60 minutes at 37° C. A reaction was carried out by adding 3 μL of 20% DMSO instead of test compound as full reaction control, and another reaction was carried out by adding sterile water instead of the enzyme as no reaction control.
Chain of Clostridium difficile DNA gyrase (Q18C90 entry or part of it): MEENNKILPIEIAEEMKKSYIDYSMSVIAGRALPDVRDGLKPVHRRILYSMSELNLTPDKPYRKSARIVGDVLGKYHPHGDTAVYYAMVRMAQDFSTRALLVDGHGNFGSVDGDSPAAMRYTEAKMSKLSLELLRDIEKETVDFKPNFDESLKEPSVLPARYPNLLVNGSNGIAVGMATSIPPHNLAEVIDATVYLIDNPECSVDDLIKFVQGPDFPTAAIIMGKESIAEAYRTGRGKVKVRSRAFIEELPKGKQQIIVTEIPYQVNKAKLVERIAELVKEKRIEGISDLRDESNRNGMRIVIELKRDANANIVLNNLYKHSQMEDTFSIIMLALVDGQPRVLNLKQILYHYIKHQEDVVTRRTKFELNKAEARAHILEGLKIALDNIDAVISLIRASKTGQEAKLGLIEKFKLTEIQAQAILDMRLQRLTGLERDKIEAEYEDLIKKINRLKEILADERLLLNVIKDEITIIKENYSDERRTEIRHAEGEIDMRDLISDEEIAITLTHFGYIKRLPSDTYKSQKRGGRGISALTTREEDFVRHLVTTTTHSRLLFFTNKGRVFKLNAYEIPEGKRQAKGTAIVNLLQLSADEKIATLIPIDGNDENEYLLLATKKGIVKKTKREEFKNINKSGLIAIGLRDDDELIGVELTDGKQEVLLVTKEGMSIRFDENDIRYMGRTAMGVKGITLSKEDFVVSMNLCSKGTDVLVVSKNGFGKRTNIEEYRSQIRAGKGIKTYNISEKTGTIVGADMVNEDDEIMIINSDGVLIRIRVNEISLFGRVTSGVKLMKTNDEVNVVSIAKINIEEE
Chain of Clostridium difficile DNA gyrase (Q18C89 entry or part of it): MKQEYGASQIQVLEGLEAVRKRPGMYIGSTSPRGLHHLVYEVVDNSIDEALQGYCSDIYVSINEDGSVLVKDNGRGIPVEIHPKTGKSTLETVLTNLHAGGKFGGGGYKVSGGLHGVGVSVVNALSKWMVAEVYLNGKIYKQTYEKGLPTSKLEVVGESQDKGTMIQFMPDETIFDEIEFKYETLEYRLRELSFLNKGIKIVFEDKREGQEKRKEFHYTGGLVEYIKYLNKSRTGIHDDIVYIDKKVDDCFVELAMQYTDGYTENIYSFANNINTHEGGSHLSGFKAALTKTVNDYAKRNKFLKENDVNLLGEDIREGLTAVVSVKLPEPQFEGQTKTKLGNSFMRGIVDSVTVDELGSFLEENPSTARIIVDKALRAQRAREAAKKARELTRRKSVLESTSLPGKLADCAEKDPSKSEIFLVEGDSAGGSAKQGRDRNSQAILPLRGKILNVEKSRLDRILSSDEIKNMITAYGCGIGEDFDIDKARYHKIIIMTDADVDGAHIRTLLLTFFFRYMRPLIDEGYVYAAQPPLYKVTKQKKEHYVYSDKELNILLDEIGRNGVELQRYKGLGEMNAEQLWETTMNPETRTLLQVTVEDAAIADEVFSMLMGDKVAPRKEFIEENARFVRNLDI
Reactions were stopped by the addition of 5 μL of 6×loading dye and were analyzed by electrophoresis through 1.0% agarose gels with 1×TAE running buffer. Gels were run at 60 V for 3 hours, stained with EtBr, and visualized by Gel Doc system (BioRad). Intensity of the supercoiled DNA bands was quantified, and the IC50 of Clostridium difficile DNA gyrase was calculated using Graph Pad Prism.

Setting [7] is: Japanese Pharmacopeia First Fluid (JP1), pH 1.2, simulated gastric fluid, read-out: Solubility JP1.
The mark [8] stands for this setting: Japanese Pharmacopeia Second Fluid (JP2), pH 6.8, aqueous buffer, read-out: Solubility JP2.

Turning to `CCc1[nH]c(C(=O)N[C@@H]2CCN(c3nnc(C(O)CO)s3)C[C@@H]2OC)nc1Cl` (stereo in doubt) [Compound No. 9, 4-Chloro-N-[(3S,4R)-1-{5-[(1R)-1,2-dihydroxyethyl]-1,3,4-thiadiazol-2-yl}-3-methoxypiperidin-4-yl]-5-ethyl-1H-imidazole-2-carboxamide], the solubility (in general, the concentration that dissolves in the medium under given conditions) at 30 min in [1] (setting [7]) was 862 µg/mL (≈ 2000 µM); in [1] (setting [8]) it was 220 µg/mL (≈ 511 µM). In addition, the MIC amounted to 0.125 µg/mL (≈ 0.29 µM) against P. acnes ATCC 6523; 0.125 µg/mL (≈ 0.29 µM) against P. acnes IHMA 103740; 0.125 µg/mL (≈ 0.29 µM) with P. acnes ATCC 6921; 0.125 µg/mL (≈ 0.29 µM) against P. acnes IHMA 775486; 0.125 µg/mL (≈ 0.29 µM) in [2]; 4 µg/mL (≈ 9.28 µM) against S. aureus ATCC 29213.

Take `CCO[C@H]1CN(c2nnc(C(C)O)s2)CC[C@H]1NC(=O)c1nc(Cl)c(CC)[nH]1` (stereo partly drawn) [Compound No. 1, 4-Chloro-N-{(3S,4R)-3-ethoxy-1-[5-(1-hydroxyethyl)-1,3,4-thiadiazol-2-yl]piperidin-4-yl}-5-ethyl-1H-imidazole-2-carboxamide]: the MIC in series [3] turned out to be 0.25 µg/mL (≈ 0.583 µM); in [4], 2 µg/mL (≈ 4.66 µM); against E. faecium ATCC 29212, 0.25 µg/mL (≈ 0.583 µM); in series [2] it was 0.03 µg/mL (≈ 0.0699 µM); in the series on S. aureus ATCC 29213, 0.5 µg/mL (≈ 1.17 µM). In series [5], the “survival on day 35” value amounted to 100%. Also, the IC50 (in general, the midpoint of a concentration-inhibition curve) in [6] is 8.63 nM.

As to `CCc1[nH]c(C(=O)N[C@@H]2CCN(c3nnc(C(O)CO)s3)C[C@@H]2OC)nc1Cl` (stereo in doubt) [Compound No. 8, 4-Chloro-N-[(3S,4R)-1-{5-[(1S)-1,2-dihydroxyethyl]-1,3,4-thiadiazol-2-yl}-3-methoxypiperidin-4-yl]-5-ethyl-1H-imidazole-2-carboxamide], the solubility at 30 min in series [1] (setting [7]) was 728 µg/mL (≈ 1690 µM); in series [1] (setting [8]) it was 125 µg/mL (≈ 290 µM). Moreover, the MIC against P. acnes ATCC 6523 turned out to be 0.25 µg/mL (≈ 0.58 µM); with P. acnes IHMA 103740 it was 0.25 µg/mL (≈ 0.58 µM); with P. acnes ATCC 6921 it was 0.25 µg/mL (≈ 0.58 µM); in the series on P. acnes IHMA 775486, 0.25 µg/mL (≈ 0.58 µM); in [2] it was 0.125 µg/mL (≈ 0.29 µM); against S. aureus ATCC 29213, 4 µg/mL (≈ 9.28 µM).

On to `CCO[C@H]1CN(c2nnc(C(C)(C)O)s2)CC[C@H]1NC(=O)c1nc(Cl)c(CC)[nH]1` [Compound No. 7, 4-Chloro-N-{(3S,4R)-3-ethoxy-1-[5-(2-hydroxypropan-2-yl)-1,3,4-thiadiazol-2-yl]piperidin-4-yl}-5-ethyl-1H-imidazole-2-carboxamide], for which the solubility at 30 min in series [1] (setting [8]) turned out to be 611 µg/mL (≈ 1380 µM). The figures for the MIC (in [2]; with S. aureus ATCC 29213) were 0.125 µg/mL (≈ 0.282 µM) and 0.5 µg/mL (≈ 1.13 µM), respectively.

Turning to `CCc1[nH]c(C(=O)N[C@@H]2CCN(c3nnc(C(C)CO)s3)C[C@@H]2OC)nc1Cl` (stereo partly drawn) [Compound No. 6, 4-Chloro-5-ethyl-N-{(3S,4R)-1-[5-(1-hydroxypropan-2-yl)-1,3,4-thiadiazol-2-yl]-3-methoxypiperidin-4-yl}-1H-imidazole-2-carboxamide], the MIC against P. acnes ATCC 6523 was 0.125 µg/mL (≈ 0.291 µM); in the series on P. acnes IHMA 103740, 0.25 µg/mL (≈ 0.583 µM); in the series with P. acnes ATCC 6921, 0.125 µg/mL (≈ 0.291 µM); with P. acnes IHMA 775486, 0.25 µg/mL (≈ 0.583 µM); in [2], 0.125 µg/mL (≈ 0.291 µM); with S. aureus ATCC 29213, 0.5 µg/mL (≈ 1.17 µM).

On to `CCc1[nH]c(C(=O)N[C@@H]2CCN(c3nnc(C(C)(O)CO)s3)C[C@@H]2OC)nc1Cl` (stereo in doubt) [Compound No. 11, 4-Chloro-N-[(3S,4R)-1-{5-[(2S)-1,2-dihydroxypropan-2-yl]-1,3,4-thiadiazol-2-yl}-3-methoxypiperidin-4-yl]-5-ethyl-1H-imidazole-2-carboxamide], for which the “survival on day 35” value in [5] turned out to be 100%. The same compound had an IC50 in series [6] of 27 nM. Also, the solubility at 30 min in [1] (setting [7]) was 884 µg/mL (≈ 1990 µM); in [1] (setting [8]), 264 µg/mL (≈ 593 µM). In addition, the MIC in [2] is 0.06 µg/mL (≈ 0.135 µM); against S. aureus ATCC 29213, 1 µg/mL (≈ 2.25 µM).
